Measurements: patent US11730720B2, “ALK5 inhibitors” (THERAVANCE BIOPHARMA R&D IP, LLC, priority 2018, dated 2023)

Tests used:
[1] = molecular target: T1, recombinant human ALK5 (TGF-βR1) protein (Homo sapiens, UniProt P36897); experiment: Biochemical ALK5 (TGF-βR1) assay to measure pKi (LANCE Ultra ULight kinase assay); details: apparent pKi, converted from pIC50 using the Cheng-Prusoff equation
T1 construct: purchased Life Technologies PR9075A
T1 sequence (P36897 34-503): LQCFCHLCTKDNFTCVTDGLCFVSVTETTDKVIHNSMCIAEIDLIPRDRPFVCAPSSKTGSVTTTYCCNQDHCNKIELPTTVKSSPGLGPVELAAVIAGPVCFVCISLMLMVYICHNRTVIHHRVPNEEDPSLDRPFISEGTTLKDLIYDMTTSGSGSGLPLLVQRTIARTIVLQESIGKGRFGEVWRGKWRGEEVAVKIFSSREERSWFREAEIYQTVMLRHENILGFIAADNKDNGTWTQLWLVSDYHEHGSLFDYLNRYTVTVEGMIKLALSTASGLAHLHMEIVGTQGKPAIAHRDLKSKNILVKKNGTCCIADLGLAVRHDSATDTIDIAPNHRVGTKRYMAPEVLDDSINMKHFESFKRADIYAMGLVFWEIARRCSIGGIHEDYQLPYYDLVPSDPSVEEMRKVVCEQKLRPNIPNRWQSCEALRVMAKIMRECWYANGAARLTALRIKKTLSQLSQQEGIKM
Method in brief: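 TR-FRET kinase format: compound dose range 10 μM–25 pM equilibrated 60 min with human ALK5 and ULight-labelled topoisomerase 2α peptide in HEPES/MgCl2 buffer pH 7.5 with DTT. Reaction started with ATP (125 μM stock, 5× final), 60 min at 37° C, stopped with EDTA/Eu-anti-phospho antibody; pKi derived from pIC50 via Cheng-Prusoff.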

[2] = system: TGF-β-stimulated SMAD3 phosphorylation in BEAS-2B cells; experiment: Cellular ALK5 potency assay, inhibition of TGF-β stimulated pSMAD3 formation in BEAS-2B cells; format: cell-based; details: Homo sapiens, inhibition of TGF-β (10 ng/mL) stimulated pSMAD3 formation, 1 hour compound incubation, read-out: BEAS2B pIC50 (converted)
Method in brief: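 Phospho-SMAD3 was quantified by AlphaLISA in lysates of human lung epithelial BEAS-2B cells. Compound was added 1 h (37 °C, HEPES/BSA-supplemented HBSS) before a 30 min challenge with 10 ng/mL TGF-β. Values are pIC50 relative to stimulated cells without compound.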

Row | SMILES | Ki [1] | IC50 [2]
1 | COC(=O)[C@H]1CN(c2cnc3ccc(-c4c[nH]nc4-c4cc(Cl)ccc4F)nc3c2)CCN1 [Compound 1-62, methyl (2R)-4-[6-[3-(5-chloro-2-fluoro-phenyl)-1H-pyrazol-4-yl]-1,5-naphthyridin-3-yl]piperazine-2-carboxylate] | 0.398 to 3.16 nM | 25.1 to 158 nM
2 | Clc1cccc(-c2[nH]cnc2-c2ccc3ncc(NCCN4CCNCC4)cc3c2)c1 [Compound 24-4, 6-[5-(3-chlorophenyl)-1H-imidazol-4-yl]-N-(2-piperazin-1-ylethyl)quinolin-3-amine] | 0.398 to 3.16 nM | 25.1 to 158 nM
3 | CN(C)C1CCN(c2cnc3ccc(-c4c[nH]nc4-c4ccc(F)c(F)c4)nc3c2)C1 (racemic) [Compound 8-5, rac-(3S)-1-[6-[3-(3,4-difluorophenyl)-1H-pyrazol-4-yl]-1,5-naphthyridin-3-yl]-N,N-dimethyl-pyrrolidin-3-amine] | 0.398 to 3.16 nM | 25.1 to 158 nM
4 | Fc1ccc(Cl)cc1-c1[nH]cnc1-c1ccc2ncc(N3CCCNCC3)cc2n1 [Compound 2-7, 2-[5-(5-chloro-2-fluoro-phenyl)-1H-imidazol-4-yl]-7-(1,4-diazepan-1-yl)-1,5-naphthyridine] | 0.398 to 3.16 nM | 25.1 to 158 nM
5 | COCC(C)(CNc1cnc2ccc(-c3c[nH]nc3-c3cc(Cl)ccc3F)nc2c1)N1CCN(C(C)C)CC1 (centres unmarked) [Compound 1-6, 6-[3-(5-chloro-2-fluoro-phenyl)-1H-pyrazol-4-yl]-N-[2-(4-isopropylpiperazin-1-yl)-3-methoxy-2-methyl-propyl]-1,5-naphthyridin-3-amine] | 0.398 to 3.16 nM | 200 to 1260 nM
6 | CN(C)C1(C)CN(c2cnc3ccc(-c4c[nH]nc4-c4cc(Cl)ccc4F)nc3c2)C1 [Compound 1-33, 1-[6-[3-(5-chloro-2-fluoro-phenyl)-1H-pyrazol-4-yl]-1,5-naphthyridin-3-yl]-N,N,3-trimethyl-azetidin-3-amine] | 0.398 to 3.16 nM | 25.1 to 158 nM
7 | NC1CCN(c2cnc3ccc(-c4c[nH]nc4-c4cc(Cl)ccc4F)nc3c2)CC1 [Compound 1-135, 1-[6-[3-(5-chloro-2-fluoro-phenyl)-1H-pyrazol-4-yl]-1,5-naphthyridin-3-yl]piperidin-4-amine] | 0.0398 to 0.316 nM | 25.1 to 158 nM
8 | CNC1CCN(c2cnc3ccc(-c4c[nH]nc4-c4cc(Cl)ccc4F)nc3c2)C1 (centres unmarked) [Compound 1-56, 1-[6-[3-(5-chloro-2-fluoro-phenyl)-1H-pyrazol-4-yl]-1,5-naphthyridin-3-yl]-N-methyl-pyrrolidin-3-amine] | 0.0398 to 0.316 nM | ≤ 20 nM
9 | Fc1ccc(Cl)cc1-c1[nH]cnc1-c1ccc2ncc(-c3nc4n(n3)CCNC4)cc2n1 [Compound 2-25, 2-[5-(5-chloro-2-fluoro-phenyl)-1H-imidazol-4-yl]-7-(5,6,7,8-tetrahydro-[1,2,4]triazolo[1,5-a]pyrazin-2-yl)-1,5-naphthyridine] | 0.0398 to 0.316 nM | 25.1 to 158 nM
10 | Fc1ccc(Cl)cc1-c1[nH]cnc1-c1ccc2ncc(-c3nnn4c3CNCC4)cc2c1 [Compound 17-12, 6-[5-(5-chloro-2-fluoro-phenyl)-1H-imidazol-4-yl]-3-(4,5,6,7-tetrahydrotriazolo[1,5-a]pyrazin-3-yl)quinoline] | 0.398 to 3.16 nM | 25.1 to 158 nM
11 | Fc1cc(F)c(-c2n[nH]cc2-c2ccc3ncc(-c4cnn5c4CNCC5)cc3n2)cc1Cl [Compound 6-45, 2-(3-(5-chloro-2,4-difluorophenyl)-1H-pyrazol-4-yl)-7-(4,5,6,7-tetrahydropyrazolo[1,5-a]pyrazin-3-yl)-1,5-naphthyridine] | 0.0398 to 0.316 nM | 25.1 to 158 nM
12 | Fc1ccc(Cl)cc1-c1n[nH]cc1-c1ccc2ncc(NCC3CCCCN3)cc2n1 (centres unmarked) [Compound 1-23, 6-[3-(5-chloro-2-fluoro-phenyl)-1H-pyrazol-4-yl]-N-(2-piperidylmethyl)-1,5-naphthyridin-3-amine] | 0.0398 to 0.316 nM | 25.1 to 158 nM
13 | COCC1CN(c2cnc3ccc(-c4c[nH]nc4-c4cc(Cl)ccc4F)nc3c2)CCN1C (racemic) [Compound 1-80, 2-[3-(5-chloro-2-fluoro-phenyl)-1H-pyrazol-4-yl]-7-[rac-(3R)-3-(methoxymethyl)-4-methyl-piperazin-1-yl]-1,5-naphthyridine] | 0.398 to 3.16 nM | 25.1 to 158 nM
14 | Fc1ccc(Cl)cc1-c1n[nH]cc1-c1ccc2ncc(-c3ncc4n3CCN4)cc2n1 [Compound 1-129, 2-[3-(5-chloro-2-fluoro-phenyl)-1H-pyrazol-4-yl]-7-(2,3-dihydro-1H-imidazo[1,2-c]imidazol-5-yl)-1,5-naphthyridine] | 0.398 to 3.16 nM | 200 to 1260 nM
15 | Fc1cc(F)c(-c2n[nH]cc2-c2ccc3ncc(-c4[nH]nc5c4CCNC5)cc3n2)cc1Cl [Compound 6-53, 2-[3-(5-chloro-2,4-difluoro-phenyl)-1H-pyrazol-4-yl]-7-(4,5,6,7-tetrahydro-2H-pyrazolo[3,4-c]pyridin-3-yl)-1,5-naphthyridine] | 0.0398 to 0.316 nM | 25.1 to 158 nM

Second part, led by results:

Row | Ki [1] | SMILES | IC50 [2]
16 | 0.0398 to 0.316 nM | CNCCn1cc(-c2cnc3ccc(-c4c(-c5cc(Cl)c(F)cc5F)[nH]c5cccnc45)nc3c2)cn1 [Compound 26-1, 2-[4-[6-[2-(5-chloro-2,4-difluoro-phenyl)-1H-pyrrolo[3,2-b]pyridin-3-yl]-1,5-naphthyridin-3-yl]pyrazol-1-yl]-N-methyl-ethanamine] | 200 to 1260 nM
17 | 0.0398 to 0.316 nM | COC(=O)CC1CN(CCNc2cnc3ccc(-c4nc[nH]c4-c4cc(Cl)ccc4F)nc3c2)CCN1 (centres unmarked) [Compound 2-36, methyl 2-[4-[2-[[6-[5-(5-chloro-2-fluoro-phenyl)-1H-imidazol-4-yl]-1,5-naphthyridin-3-yl]amino]ethyl]piperazin-2-yl]acetate] | 25.1 to 158 nM
18 | 0.0398 to 0.316 nM | CCN1CCN(CCNc2cnc3ccc(-c4c[nH]nc4-c4cc(Cl)ccc4F)nc3c2)CC1 [Compound 1-11, 6-[3-(5-chloro-2-fluoro-phenyl)-1H-pyrazol-4-yl]-N-[2-(4-ethylpiperazin-1-yl)ethyl]-1,5-naphthyridin-3-amine] | ≤ 20 nM
19 | 0.0398 to 0.316 nM | O=C(NCCN1CCCC1)[C@H]1CN(c2cnc3ccc(-c4c[nH]nc4-c4cc(Cl)ccc4F)nc3c2)CCN1 [Compound 1-132, (2R)-4-[6-[3-(5-chloro-2-fluoro-phenyl)-1H-pyrazol-4-yl]-1,5-naphthyridin-3-yl]-N-(2-pyrrolidin-1-ylethyl)piperazine-2-carboxamide] | 200 to 1260 nM
20 | ≤ 0.0316 nM | NCCn1cc(-c2cnc3ccc(-c4c[nH]nc4-c4cc(Cl)ccc4F)nc3c2)cn1 [Compound 1-89, 2-[4-[6-[3-(5-chloro-2-fluoro-phenyl)-1H-pyrazol-4-yl]-1,5-naphthyridin-3-yl]pyrazol-1-yl]ethanamine] | 25.1 to 158 nM
21 | ≤ 0.0316 nM | CNCCn1cc(-c2cnc3ccc(-c4c[nH]nc4-c4cc(Cl)ccc4F)cc3c2)cn1 [Compound 16-1, 2-(4-(6-(3-(5-chloro-2-fluorophenyl)-1H-pyrazol-4-yl)quinolin-3-yl)-1H-pyrazol-1-yl)-N-methylethan-1-amine] | ≤ 20 nM
22 | ≤ 0.0316 nM | CN1CC=C(c2cnc3ccc(-c4c[nH]nc4-c4cc(Cl)ccc4F)nc3c2)C1 [Compound 1-97, 2-[3-(5-chloro-2-fluoro-phenyl)-1H-pyrazol-4-yl]-7-(1-methyl-2,5-dihydropyrrol-3-yl)-1,5-naphthyridine] | ≤ 20 nM
